Assay results as given in US20080261898A1, “COMPOSITION AND METHOD FOR CANCER TREATMENT AND PREVENTION” (priority 2007, published 2008).

Columns and labels:
LNCaP cells [1] = test: BrdU based cell proliferation assay, LNCaP cells; parameters: species or system human
Description: (§1) AC620 was incubated with hormone-refractory prostate cancer cell line DU-145 cells and hormone-responsive prostate cancer cell line LNCaP cells at various concentrations (0, 0.1, 0.5, 1, 5 μM) for 72 hr. LNCaP cells were maintained in RPMI 1640 medium (PAA Laboratories, Pashing, Austria) supplemented with 10% fetal calf serum (FCS) (Sigma, St. Louis, Mo.). The effect of AC620 on proliferation of DU-145 cells and LNCaP cells was determined by using a non-radioactive BrdU based cell proliferation assay kit (Roche, Switzerland) according to manufacturer's protocol. BrdU incorporation into the cellular DNA was determined by measuring the absorbance at 450 nm and 690 nm on an ELISA plate reader.
as §1, with “0 (Control) and” for “various concentrations (0, 0.1, 0.5, 1,”, “μM” for “μM)”, “for 24, 48 and” for “for”, “hr.” for “hr. LNCaP cells were maintained in RPMI 1640 medium (PAA Laboratories, Pashing, Austria) supplemented with 10% fetal calf serum (FCS) (Sigma, St. Louis, Mo.).”

Bcl-2 = Bcl-2 expression in xenograft tumor samples, immunoblotting; format: in vivo, mouse
Description: (§2) 8-12 week old athymic nude mice (Jackson Laboratories, Bar Harbor, Me., US) were randomly assigned to Control (n=10) and Treatment (n=10) groups. Tumor xenografts were generated by injecting DU-145 cells (4×10^6) subcutaneously into the mice (Day 1). 1 mg/kg body weight of AC620 or PBS (Control) was administrated to the mice by subcutaneous injection starting at the time of tumor implantation (Day 1) and the mice were treated twice a week. Tumors were measured periodically. At Day 30, the mice were sacrificed. Half of each tumor was processed for immunohistochemical analysis and the other half was frozen for subsequent protein and RNA analysis.
(§3) Xenograft mouse model was generated and AC620 or PBS (Control) was administrated to the transplanted mice for 30 days as described above. After the mice were sacrificed, immunoblotting analysis of the tumor samples was performed using Bcl-2 and p21 antibodies as described above.

VEGF RNA = VEGF RNA expression in xenograft tumor samples, RT-PCR; format: in vivo, mouse; details: 30 days treatment
Description: as §2
(§4) Xenograft mouse model was generated and AC620 or PBS (Control) was administrated to the transplanted mice for 30 days as described above. After the mice were sacrificed, immunohistochemical analysis of the tumor samples was performed using VEGF and VEGF R2 antibodies with a semi-automatic system Ventana ES (Ventana Inc, Tucson, Ariz.). The specimens were viewed with an Olympus BX51 microscope. Expression of VEGF in tumor samples at RNA level was measured by RT-PCR.

VEGF = VEGF expression in xenograft tumor samples, immunohistochemistry; format: in vivo, mouse; details: 1 mg/kg s.c. twice a week, 30 days
Description: as §2, §4

DU-145 cells [2] = test: Viable cells, Annexin-V staining and flow cytometry, DU-145 cells; format: cell-based, human; details: 72 hr
Description: (§5) AC620 was incubated with DU-145 cells, LNCaP cells and primary human prostate endothelial cells at high concentrations (0, 5, 100, 500, 1000 μM) for 72 hr. The number of viable cells was measured by Annexin-V staining followed by flow cytometry analysis.

[3] = tested on: VEGF Receptor I (VEGF R1); test: VEGF R1 expression in DU-145 cells, immunoblotting; format: cell-based, human; details: 0.1, 0.5, 1 μM, 72 hr
Description: DU-145 cells were treated with AC620 at various concentrations (0, 0.1, 0.5, 1 μM) for 72 hr. After 72 hr treatment, cell lysates were collected and immunoblotting was performed. The membranes were probed with primary antibodies against VEGF Receptor I (VEGF R1) and VEGF Receptor II (VEGF R2) and actin (Santa Cruz Biotechnology, Santa Cruz, Calif.) followed by horseradish peroxidase (HRP)-conjugated secondary antibodies and visualized using the Enhanced Chemi-Luminescence detection system (ECL) and ECL films.

[4] = tested on: primary human prostate endothelial cells; test: Viable cells, Annexin-V staining and flow cytometry, primary human prostate endothelial cells; format: cell-based; details: up to the highest concentration, 1000 μM, 72 hr
Description: as §5

LNCaP cells [5] = test: Apoptosis, Annexin V flow cytometry, LNCaP cells; format: cell-based, human; details: 72 hr
Description: (§6) AC620 was incubated with DU-145 cells and LNCaP cells at various concentrations (0, 0.1, 0.5, 1, 5 μM) for 72 hr. The effect of AC620 on apoptosis of DU-145 cells and LNCaP cells was assessed. The cells were washed in 1×PBS and resuspended in binding buffer (0.01M Hepes pH 7.4, 0.14M NaCl, 2.5 mM CaCl2), stained with Annexin V conjugated with APC (Pharmingen) and then subjected to flow cytometry analysis using FACS Caliber (BD Biosciences, San Jose, Calif.).

DU-145 cells [6] = test: Apoptosis, Annexin V flow cytometry, DU-145 cells; format: cell-based, human; details: 72 hr
Description: as §6

CDK1 = CDK1 expression in xenograft tumor samples, immunoblotting; format: in vivo, mouse
Description: as §2
Xenograft mouse model was generated and AC620 or PBS (Control) was administrated to the transplanted mice for 30 days as described above. After the mice were sacrificed, immunoblotting analysis of the tumor samples was performed using CDK1 and CDK2 antibodies as described above.

p21 = p21 expression in xenograft tumor samples, immunoblotting; format: in vivo, mouse
Description: as §2, §3

HT-29 cells = test: Apoptosis, Annexin V, HT-29 cells; format: cell-based; details: 72 hr
Description: as §6
AC620 was incubated with metastatic colorectal cancer cell line HT-29 cells at various concentrations (0, 0.1, 0.5, 1, 4 μM) for 72 hr. The effect of AC620 on apoptosis of HT-29 cells was assessed by Annexin V stating as described above.

CC1OC(OCC2OC(Oc3c(-c4ccc(O)c(O)c4)oc4cc(O)c(O)cc4c3=O)C(O)C(O)C2O)C(O)C(O)C1O (stereo not shown) [AC620]
decrease in cell proliferation of LNCaP cells (LNCaP cells [1]; 5 μM, after 72 hr (time study)): 65%
decrease in cell proliferation of LNCaP cells (LNCaP cells [1]; 0.1 μm, 72 hr): 23%
decrease in cell proliferation of LNCaP cells (LNCaP cells [1]; 0.5 μm, 72 hr): 20%
decrease in cell proliferation of LNCaP cells (LNCaP cells [1]; 1 μm, 72 hr): 42%
decrease in cell proliferation of LNCaP cells (LNCaP cells [1]; 5 μm, 72 hr (dose study)): 65%
estimated decrease of Bcl-2 expression in tumor samples (Bcl-2; Treatment 1): ~80%
estimated decrease of Bcl-2 expression in tumor samples (Bcl-2; Treatment 2): > 95%
estimated decrease of Bcl-2 expression in tumor samples (Bcl-2; Treatment 3): ~90%
estimated decrease of Bcl-2 expression in tumor samples (Bcl-2; Treatment 4): > 95%
estimated decrease of VEGF RNA expression level in tumor samples (VEGF RNA): ~90%
expression of VEGF in tumors (VEGF): completely abolished
viable DU-145 cells decreased (DU-145 cells [2]; 5 μm): 67%
viable DU-145 cells decreased (DU-145 cells [2]; 100 μm): 93%
viable DU-145 cells decreased (DU-145 cells [2]; 500 μm): 94%
viable DU-145 cells decreased (DU-145 cells [2]; 1000 μm): 97%
change in VEGF R1 expression [3]: no change
viability of primary human prostate endothelial cells [4]: remained viable
apoptosis increased, LNCaP cells (LNCaP cells [5]; 0.1 μm): 46%
apoptosis increased, LNCaP cells (LNCaP cells [5]; 0.5 μm): 81%
apoptosis increased, LNCaP cells (LNCaP cells [5]; 1 μm): 154%
apoptosis increased, LNCaP cells (LNCaP cells [5]; 5 μm): 177%
apoptosis increased, DU-145 cells (DU-145 cells [6]; 0.1 μm): 46%
apoptosis increased, DU-145 cells (DU-145 cells [6]; 0.5 μm): 115%
apoptosis increased, DU-145 cells (DU-145 cells [6]; 1 μm): 285%
apoptosis increased, DU-145 cells (DU-145 cells [6]; 5 μm): 389%
reduction of CDK1 expression in tumor samples (CDK1; Treatment 1): approximately 80%
reduction of CDK1 expression in tumor samples (CDK1; Treatment 2): > 95%
reduction of CDK1 expression in tumor samples (CDK1; Treatment 3): ~90%
reduction of CDK1 expression in tumor samples (CDK1; Treatment 4): approximately 80%
p21 expression reduced in tumor samples (p21; Treatment 1): 0%
p21 expression reduced in tumor samples (p21; Treatment 2): 70%
p21 expression reduced in tumor samples (p21; Treatment 3): 60%
p21 expression reduced in tumor samples (p21; Treatment 4): 90%
apoptosis increased, HT-29 cells (HT-29 cells; 0.1 μm): 10%
apoptosis increased, HT-29 cells (HT-29 cells; 0.5 μm): 87%
apoptosis increased, HT-29 cells (HT-29 cells; 1 μm): 220%
apoptosis increased, HT-29 cells (HT-29 cells; 5 μm): 267%
